The text below walks through data of patent US20130210034A1, “COMPLEX PHOSPHOPROTEIN ACTIVATION PROFILES” (BECKMAN COULTER, INC., priority 2005, published 2013).

The subject of this assay is pERK and pS6. Nature of the assay: Comparison of SCF-stimulated pERK and pS6 (pERK/pS6 ratios) in healthy donor and AML bone marrow samples. Type of assay: cell-based, human. Here is the method: In an attempt to dissect the differences between the pERK and pS6 kinetic profiles in healthy donor and AML bone marrow sampless, SCF-stimulated pERK and pS6 data derived from AML1, ALM2, and healthy donors 6 to 9 were analyzed from four different perspectives: MFI, the frequency of positive-stained cells, the ratio of positive to negative cells, and fold stimulation (FIG. 10 and Table 10). The ratio of positives to negative cells was calculated by estimating the AUC of both positive- and negative-stained cells at each t=n, and then expressing this as the ratio of positives to negatives. The fold stimulation was the fold change of the positive/negative ratio at t=n over the baseline ratio at t=0 min. […] However, this was not the case in the AML samples.

Stem Cell Factor [SCF]: where the note is “AML1”, the “Fold Stimulation, pERK/pS6” value is recorded as 1.4; the “Frequency, pERK/pS6” value stood at 0.92; the “MFI, pERK/pS6” value was 0.48; the “Positives/Negatives, pERK/pS6” value amounted to 0.29. For the same substance, under “AML2”, the “Fold Stimulation, pERK/pS6” value was 2.1; the “Frequency, pERK/pS6” value stood at 0.93; the “MFI, pERK/pS6” value came out at 0.54; the “Positives/Negatives, pERK/pS6” value is on record as 0.32. Further, under “AML samples”, the “[(pERK)max:(pS6)max]MFI ratio” value was “about 0.5” and the “[(pERK)max:(pS6)max]POS/NEG ratio” value is given as “about 0.3”. Under “healthy donors 6 to 9”, the “Fold Stimulation, pERK/pS6” value turned out to be 5.3; the “Frequency, pERK/pS6” value stood at 3.1; the “MFI, pERK/pS6” value is 3.6; the “Positives/Negatives, pERK/pS6” value was found to be 11.
